From patent publication US7588783B2, “Flavonoid derivative” (Merck Patent GmbH, priority 2003, dated 2009) come the findings set out here.

In brackets after ≈: the same amount, converted by molar mass.

The subject of series [1] is tissue inhibitor of metalloproteinase 1 precursor (TIMP1). In words: cDNA array gene expression: TIMP1. In kind it is cell-based, human. The settings on record: detectable by cDNA array. How it is done:
(§1) The influence on the expression of the said genes can be detected by means of a cDNA array.
(§2) The culture medium in cell cultures (human keratinocytes) is replaced by culture medium with (test) or without test substance (control). The cells are cultivated further for a defined time, harvested and frozen at −80°.
(§3) The RNA is extracted, where each culture comprises about 200 μg of RNA. The solution is adjusted to 1 μg/μl of RNA and treated with DNAse I in order to remove all DNA residues. The amount of RNA is adjusted to 2 μg/ml.
(§4) The mRNA is transcribed to cDNA ^32P-labelled samples and purified by chromatography.
(§5) The DNA sequences are immobilised on cDNA chip membranes and hybridised (overnight at 68° C). The membranes are washed intensively, and the radioactivity of each measurement point is measured. An increase in the radioactivity means upregulation of the corresponding RNA compared with the control.

The test system of series [2] is epican gene (hyaluronic acid receptor). In words: cDNA array gene expression: epican gene. In kind it is cell-based, human. The settings on record: detectable by cDNA array. As for the experimental part: as §1, §2, §3, §4, §5
The next series relates to arachidonic acid cascade. Kind of series: antiinflammatory activity, keratinocyte monolayer PGE2 model. The series is classed as cell-based. How it is done: In order to induce inflammation, keratinocytes are incubated with the pro-inflammatory substance phorbol myristate acetate (PMA) for 24 hours in 96-well plates (15,000 cells/well). The preincubated cells (final concentration of PMA 0.1 μg/ml) are incubated with 10^−6 M indometacin (positive control) or 0.2 mM [5-hydroxy-7-methoxy-2-(4′-methoxyphenyl)-4-oxo-4H-chromen-8-yl]sulfonic acid monoester for 24 hours. The negative control used is a control culture comprising no PMA. After incubation, the content of prostaglandin E2 (PGE2) in all three samples is determined by ELISA kits.

A short description of another series: water solubility. The series is classed as physicochemical. The settings on record: at 25° C.
The next series relates to transglutaminase. Kind of series: cDNA array gene expression in human keratinocytes: transglutaminase gene. The series is classed as cell-based. The settings on record: detectable by cDNA array. How it is done: The influence on the expression of the said genes can be detected by means of a cDNA array. Expression of the Transqlutaminase Gene The culture medium in cell cultures (human keratinocytes) is replaced by culture medium with (test) or without test substance (control). The cells are cultivated further for a defined time, harvested and frozen at −80°. The RNA is extracted, where each culture comprises about 200 μg of RNA. The solution is adjusted to 1 μg/μl of RNA and treated with DNAse I in order to remove all DNA residues. The amount of RNA is adjusted to 2 μg/ml. The mRNA is transcribed to cDNA ^32P-labelled samples and purified by chromatography. The DNA sequences are immobilised on cDNA chip membranes and hybridised (overnight at 68° C). The membranes are washed intensively, and the radioactivity of each measurement point is measured. An increase in the radioactivity means upregulation of the corresponding RNA compared with the control.

The term solubility denotes the dissolved amount per volume that the medium holds. As for `COc1ccc(-c2cc(=O)c3c(O)cc(OC)c(OS(=O)(=O)O)c3o2)cc1` [[5-hydroxy-7-methoxy-2-(4′-methoxyphenyl)-4-oxo-4H-chromen-8-yl]sulfonic acid monoester], in series [1], the “synthesis of tissue inhibitor of metalloproteinase 1 precursor (TIMP1)” value was “induces the synthesis”. Also, the “expression of the epican gene (hyaluronic acid receptor)” value in series [2] is given as “induces the expression”. Further, in the series on arachidonic acid cascade, the “effect on the arachidonic acid cascade (antiinflammatory action)” value is recorded as “inhibits the arachidonic acid cascade”. The amount in solution in “water solubility” (solubility) came to 21 mg/mL (≈ 53.3 mM). Also, the “gene expression of transglutaminase” value with transglutaminase is “induction of gene expression”.
